According to ChEMBL document CHEMBL1201862, “PubChem BioAssay data set” (2004):
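Five compound concentrations were applied to cells in 96-well plates for 48 hours; endpoints were derived by simple linear interpolation of the resulting dose-response curve. GI50 is the concentration that inhibits growth by half.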 Activity calls are given as the source filed them. Cut-off read from the data, not from the text of the source: active = GI50 up to about 1.1 µM and inactive = higher. Non-standard residues stand in square brackets, D forms with d. Residues, ends and D or L forms follow the SMILES beside them. *: point of attachment. NMeF = CN[CH](Cc1ccccc1)C(=O)O; NMeV = CN[CH](C(=O)O)C(C)C; Boc = CC(C)(C)OC(=O)*

Columns and labels:
Test in all cases: NCI-60 cell line screen, 48 h
SW-620 = tested on: SW-620
HCT-15 = tested on: HCT-15
HOP-62 = tested on: HOP-62
DMS-273 = tested on: DMS-273
RPMI-8226 = tested on: RPMI-8226
HL-60 = tested on: HL-60
LOX IMVI = tested on: LOX IMVI
SF-295 = tested on: SF-295
U-251 = tested on: U-251
SK-MEL-28 = tested on: SK-MEL-28
XF498 = tested on: XF498
KM-20L2 = tested on: KM-20L2
SK-MEL-5 = tested on: SK-MEL-5
HCC 2998 = tested on: HCC 2998
DMS-114 = tested on: DMS-114
KM12 = tested on: KM12
MOLT-4 = tested on: MOLT-4
OVCAR-3 = tested on: OVCAR-3
786-0 = tested on: 786-0
NCI-H23 = tested on: NCI-H23
SNB-19 = tested on: SNB-19
HT-29 = tested on: HT-29
TK-10 = tested on: TK-10
SN12C = tested on: SN12C
NCI-H522 = tested on: NCI-H522
CCRF-CEM = tested on: CCRF-CEM
M19-MEL = tested on: M19-MEL
HCT-116 = tested on: HCT-116
NCI-H460 = tested on: NCI-H460
EKVX = tested on: EKVX
UACC-62 = tested on: UACC-62
K562 = tested on: K562
UO-31 = tested on: UO-31
IGROV-1 = tested on: IGROV-1
NCI-H226 = tested on: NCI-H226
SR = tested on: SR
Malme-3M = tested on: Malme-3M
COLO 205 = tested on: COLO 205
M14 = tested on: M14
SK-OV-3 = tested on: SK-OV-3
A549 = tested on: A549
SF-268 = tested on: SF-268
OVCAR-8 = tested on: OVCAR-8
SF-539 = tested on: SF-539
UACC-257 = tested on: UACC-257
LXFL 529 = tested on: LXFL 529
OVCAR-4 = tested on: OVCAR-4
SNB-78 = tested on: SNB-78
ACHN = tested on: ACHN
HOP-92 = tested on: HOP-92
DLD-1 = tested on: DLD-1
SNB-75 = tested on: SNB-75
RXF 393 = tested on: RXF 393
SK-MEL-2 = tested on: SK-MEL-2
OVCAR-5 = tested on: OVCAR-5
CAKI-1 = tested on: CAKI-1
A498 = tested on: A498

With `CC(C)C(NC(=O)OC(C)(C)C)C(=O)N(C)C(Cc1ccccc1)C(=O)N(C)C(C(=O)O)C(C)C` (stereo not drawn) (Boc-Val-[NMeF]-[NMeV]-OH; configuration not given here) the GI50 (SW-620) was > 100 µM (inactive), the GI50 (HCT-15) was > 100 µM and the GI50 (HOP-62) was > 100 µM (inactive). The GI50 (DMS-273) was > 100 µM (inactive), the GI50 (RPMI-8226) was > 100 µM (inactive) and the GI50 (HL-60) was > 100 µM (inactive). The GI50 (LOX IMVI) was > 100 µM (inactive), the GI50 (SF-295) was > 100 µM (inactive) and the GI50 (U-251) was > 100 µM (inactive). The GI50 (SK-MEL-28) was > 100 µM (inactive), the GI50 (XF498) was > 100 µM (inactive) and the GI50 (KM-20L2) was > 100 µM (inactive). For the same molecule, the GI50 (SK-MEL-5) was > 100 µM (inactive), the GI50 (HCC 2998) was > 100 µM (inactive) and the GI50 (DMS-114) was > 100 µM (inactive). The GI50 (KM12) was > 100 µM (inactive), the GI50 (MOLT-4) was > 100 µM (inactive) and the GI50 (OVCAR-3) was > 100 µM (inactive). For the same molecule, the GI50 (786-0) was > 100 µM (inactive), the GI50 (NCI-H23) was > 100 µM (inactive) and the GI50 (SNB-19) was > 100 µM (inactive). For the same molecule, the GI50 (HT-29) was > 100 µM (inactive), the GI50 (TK-10) was > 100 µM (inactive) and the GI50 (SN12C) was > 100 µM (inactive). The GI50 (NCI-H522) was 71.1 µM (inactive), the GI50 (CCRF-CEM) was > 100 µM (inactive) and the GI50 (M19-MEL) was > 100 µM (inactive). For the same molecule, the GI50 (HCT-116) was > 100 µM (inactive), the GI50 (NCI-H460) was > 100 µM (inactive) and the GI50 (EKVX) was > 100 µM (inactive). The GI50 (UACC-62) was > 100 µM (inactive), the GI50 (K562) was > 100 µM (inactive) and the GI50 (UO-31) was > 100 µM (inactive). The GI50 (IGROV-1) was > 100 µM (inactive), the GI50 (NCI-H226) was > 100 µM (inactive) and the GI50 (SR) was > 100 µM (inactive). The GI50 (Malme-3M) was > 100 µM (inactive), the GI50 (COLO 205) was > 100 µM (inactive) and the GI50 (M14) was > 100 µM (inactive). The GI50 (SK-OV-3) was > 100 µM (inactive), the GI50 (A549) was > 100 µM (inactive) and the GI50 (SF-268) was 62.4 µM (inactive). The GI50 (OVCAR-8) was > 100 µM (inactive), the GI50 (SF-539) was > 100 µM (inactive) and the GI50 (UACC-257) was > 100 µM (inactive). The GI50 (LXFL 529) was > 100 µM (inactive).
`O=c1[nH]c2ccc([N+](=O)[O-])cc2nc1/C(=N/Nc1ccccc1)C(O)c1ccco1` (stereo not drawn) was tested, and the GI50 (SW-620) was 39.4 µM (inactive), the GI50 (HCT-15) was 18.2 µM and the GI50 (OVCAR-4) was 66.2 µM (inactive). For the same molecule, the GI50 (HOP-62) was > 100 µM (inactive), the GI50 (SNB-78) was > 100 µM (inactive) and the GI50 (DMS-273) was 42.4 µM (inactive). The GI50 (RPMI-8226) was 34.7 µM (inactive), the GI50 (HL-60) was 25.2 µM (inactive) and the GI50 (LOX IMVI) was > 100 µM (inactive). The GI50 (ACHN) was 33.9 µM (inactive), the GI50 (SF-295) was 83.4 µM (inactive) and the GI50 (HOP-92) was > 100 µM (inactive). The GI50 (U-251) was > 100 µM (inactive), the GI50 (SK-MEL-28) was > 100 µM (inactive) and the GI50 (XF498) was > 100 µM (inactive). The GI50 (KM-20L2) was 41.1 µM (inactive), the GI50 (SK-MEL-5) was 25.8 µM (inactive) and the GI50 (HCC 2998) was 38.5 µM (inactive). For the same molecule, the GI50 (DMS-114) was 18.9 µM (inactive), the GI50 (KM12) was 33.6 µM (inactive) and the GI50 (DLD-1) was > 100 µM (inactive). For the same molecule, the GI50 (MOLT-4) was 38.5 µM (inactive), the GI50 (OVCAR-3) was > 100 µM (inactive) and the GI50 (786-0) was > 100 µM (inactive). The GI50 (NCI-H23) was 65.3 µM (inactive), the GI50 (SNB-19) was > 100 µM (inactive) and the GI50 (HT-29) was 66.8 µM (inactive). For the same molecule, the GI50 (TK-10) was > 100 µM (inactive), the GI50 (SN12C) was > 100 µM (inactive) and the GI50 (NCI-H522) was 6.44 µM (inactive). The GI50 (CCRF-CEM) was 16.6 µM (inactive), the GI50 (M19-MEL) was 85.9 µM (inactive) and the GI50 (HCT-116) was 73.1 µM (inactive). The GI50 (SNB-75) was 36.3 µM (inactive), the GI50 (NCI-H460) was > 100 µM (inactive) and the GI50 (RXF 393) was 52.8 µM (inactive). For the same molecule, the GI50 (EKVX) was > 100 µM (inactive), the GI50 (UACC-62) was 32.2 µM (inactive) and the GI50 (SK-MEL-2) was > 100 µM (inactive). For the same molecule, the GI50 (K562) was 35.2 µM (inactive), the GI50 (UO-31) was 44.2 µM (inactive) and the GI50 (IGROV-1) was 87.9 µM (inactive). The GI50 (NCI-H226) was > 100 µM (inactive), the GI50 (SR) was 66.2 µM (inactive) and the GI50 (Malme-3M) was 63.8 µM (inactive). The GI50 (COLO 205) was 38.8 µM (inactive), the GI50 (M14) was > 100 µM (inactive) and the GI50 (SK-OV-3) was > 100 µM (inactive). The GI50 (A549) was 69.3 µM (inactive), the GI50 (SF-268) was 71.6 µM (inactive) and the GI50 (OVCAR-8) was > 100 µM (inactive). For the same molecule, the GI50 (SF-539) was > 100 µM (inactive), the GI50 (OVCAR-5) was > 100 µM (inactive) and the GI50 (UACC-257) was > 100 µM (inactive). The GI50 (LXFL 529) was 59.8 µM (inactive).
With `CC(C)OP(=O)(OC(C)C)/C(=N/Nc1ccc([N+](=O)[O-])cc1)Nc1ccccc1` the GI50 (SW-620) was 33 µM (inactive), the GI50 (HCT-15) was 32.4 µM and the GI50 (OVCAR-4) was 28.4 µM (inactive). The GI50 (HOP-62) was 29.7 µM (inactive), the GI50 (SNB-78) was 17.5 µM (inactive) and the GI50 (DMS-273) was 25.3 µM (inactive). For the same molecule, the GI50 (RPMI-8226) was 20.3 µM (inactive), the GI50 (HL-60) was 18.2 µM (inactive) and the GI50 (LOX IMVI) was 33.7 µM (inactive). For the same molecule, the GI50 (ACHN) was 24.8 µM (inactive), the GI50 (HOP-92) was 17.5 µM (inactive) and the GI50 (U-251) was 21.2 µM (inactive). For the same molecule, the GI50 (SK-MEL-28) was 23.9 µM (inactive), the GI50 (XF498) was 22.2 µM (inactive) and the GI50 (KM-20L2) was 24.2 µM (inactive). The GI50 (SK-MEL-5) was 12.2 µM (inactive), the GI50 (HCC 2998) was 49.5 µM (inactive) and the GI50 (DMS-114) was 20.4 µM (inactive). For the same molecule, the GI50 (KM12) was 20.8 µM (inactive), the GI50 (DLD-1) was 28.1 µM (inactive) and the GI50 (MOLT-4) was 10.7 µM (inactive). The GI50 (OVCAR-3) was 32.2 µM (inactive), the GI50 (786-0) was 24.1 µM (inactive) and the GI50 (NCI-H23) was 26.2 µM (inactive). For the same molecule, the GI50 (SNB-19) was 36.7 µM (inactive), the GI50 (TK-10) was 12.4 µM (inactive) and the GI50 (SN12C) was 48.6 µM (inactive). The GI50 (NCI-H522) was 17.9 µM (inactive), the GI50 (CCRF-CEM) was 18.4 µM (inactive) and the GI50 (M19-MEL) was 47.2 µM (inactive). For the same molecule, the GI50 (HCT-116) was 16.4 µM (inactive), the GI50 (SNB-75) was 36.6 µM (inactive) and the GI50 (NCI-H460) was 33 µM (inactive). For the same molecule, the GI50 (EKVX) was 35.1 µM (inactive), the GI50 (UACC-62) was 10.8 µM (inactive) and the GI50 (SK-MEL-2) was 40.1 µM (inactive). For the same molecule, the GI50 (CAKI-1) was 34.7 µM (inactive), the GI50 (K562) was 21.1 µM (inactive) and the GI50 (UO-31) was 77.3 µM (inactive). For the same molecule, the GI50 (NCI-H226) was 16.4 µM (inactive), the GI50 (A498) was > 10 µM (inactive) and the GI50 (SR) was 16.6 µM (inactive). The GI50 (Malme-3M) was 19.8 µM (inactive), the GI50 (COLO 205) was 21.6 µM (inactive) and the GI50 (M14) was 20.2 µM (inactive). For the same molecule, the GI50 (A549) was 23.1 µM (inactive), the GI50 (SF-268) was 25 µM (inactive) and the GI50 (OVCAR-8) was 34.8 µM (inactive). For the same molecule, the GI50 (SF-539) was 33.9 µM (inactive), the GI50 (OVCAR-5) was > 100 µM (inactive) and the GI50 (UACC-257) was 21 µM (inactive). The GI50 (LXFL 529) was 19.5 µM (inactive).
